# Test results taken from US8592374B2, “Neurotrophic peptides” (Research Foundation for Mental Hygiene, Inc., priority 2007, dated 2013).
# “Also recorded” adds a separate entry of the source. Peptide text beside a SMILES is read from it. * marks the point of attachment. X1 = NC(=O)C12CC3CC(CC(N*)(C3)C1)C2
# Tests used:
# [1] = test system: normal adult mice; assay: One-trial object recognition test; format: in vivo; conditions: 25 nmol/day
# Method: (§1) For the compound treatment, mice (8 animals/group) received subcutaneous implants of extended release depot pellets containing P21 or P22 at 25 nmol/day for 35 days of continuous dosing (Innovative Research of America, USA). For the control group (8 animals), pellets consisted of the carrier polymer only. Mice were anesthetized with 2.5% Avertin (0.38 ml for a 25 g animal). Under sterile conditions, pellets were implanted subcutaneously along the anterolateral aspect of the right shoulder with a precision trochar (Innovative Research of America). After recovery of anesthesia, animals were transferred to the animal colony. No complications associated with the implantation and treatment were observed. All procedures on animals were conducted in accordance with approved protocols from our Institutional Animal Welfare Committee.
# In the one-trial object recognition task, animals are exposed to two different objects which they have to identify as novel or familiar based on the memory of an earlier experience with one of the two objects they encountered in the same open field. The familiar object is explored shorter than the novel encountered one because the representation of the former is still available in memory. The one-trial object recognition task tests some aspects of episodic memory but is limited to memory of an object (what), the location of an object (where), and the context in which it was encountered (which). However, the temporal dimension of the episode remains inaccessible to the experimentator, and because of this reason this task in animals is considered a test of short term memory.
# The test used was an adaptation of the procedure previously described by Sargolini and collaborators (Sargolini, F., et al. Behav Brain Res 138 (2003):153-63). The testing apparatus was a classic open field (i.e. a PVC square arena, 50×50 cm, with walls 40 cm high). […] Object discrimination was calculated as follows: OD=(time spent close to new object)/(time spent close to new object)+(time spent close to old object)×100
# [2] = test system: normal adult mice; assay: Spatial reference memory task in the water maze; format: in vivo
# Method: as §1
# Spatial reference learning and memory were evaluated in the water maze using a procedure adapted from that previously described by Morris et al. (Morris, R. G., et al. Nature 297 (1982): 681-3). The test required that mice used a spatial navigational strategy based on a spatial representation of the environment to find a fixed submerged escape platform. The procedure was performed in a 180 cm diameter circular tank. The pool was filled with water (21±1° C.) made opaque by adding white non-toxic paint. Acquisition started with the escape platform (15 cm diameter submerged 1 cm below water surface) in the Northwest quadrant and each animal was given 90 s to find the platform. […] At the end of each trial, the mouse was left on the platform for 20 seconds, then dried and returned to its home cage until the next trial. Five such acquisition trials were given on each day for four consecutive days. A test for retention, or probe trial (PT), was given 24 hours later. During the probe trial the mouse was allowed to swim in the tank without the escape platform for 60 seconds. This was followed by second and third probe trials 15 and 30 days after the first probe trial.
# The measures of learning were the time and distance covered to reach the escape platform. For the probe trial, the tank was divided into four imaginary quadrants and a small zone where the escape platform had been. The measure of retention was calculated as the ratio of time spent or distance covered in target quadrant over that in the three other quadrants.
# Mouse behavior in the water maze was monitored by a Samsung Digital Camera (SDC 4304) mounted to the ceiling and tracked and timed by a SMART (Pan Lab/San Diego Instruments) version 2.0.14 software.
# [3] = test system: LIF-induced STAT3 phosphorylation at Tyr705 in HepG2 cells; assay: LIF-induced STAT3 phosphorylation in HepG2 cells (Western blot); format: cell-based, human; conditions: 15 min
# Method: HepG2 cells were treated with different concentrations of P21 together with 0.25 nM LIF for 15 min, and then the STAT3 phosphorylation at Tyr705 (pY-STAT3) was determined by Western blots. The pY-STAT3 value was normalized to total STAT3 expression. Data are presented as percentages of the value from cells treated with 0.25 nM LIF alone (100%). *p<0.05; **p<0.01.
# To investigate the molecular mechanism of action of compound P21 in LIF signaling, HepG2 human hepatoma cell (ATCC, USA) at 80% confluence were treated with different concentrations of P21 and with 0.25 nM LIF (Peprotec, Inc., USA) for 15 min. The cells were lysed and subjected to Western blots developed with antibodies anti-phospho-Tyr 705 STAT3 and anti-STAT3 (Cell signaling Technology, USA).
# To investigate whether P21 affects LIF signaling pathway, HepG2 cells were treated with different concentrations of P21 from 0.01 to 1000 nM along with 0.25 nM LIF for 15 min, and then measured STAT3 phosphorylation by Western blots. […] In HepG2 cells, 10 nM of P21 inhibited ˜30% of LIF-induced phosphorylation of STAT3 (p<0.005, student t-test; FIG. 15).
compound,measurement,setting,value
"CC(=O)N[C@@H](CC(=O)O)C(=O)NCC(=O)NCC(=O)N[C@@H](CC(C)C)C(=O)NC12CC3CC(C1)CC(C(N)=O)(C3)C2 [Peptide P21, Ac-DGGL^AG-NH2] (Ac-DGGL-X1)",percentage of discrimination (object discrimination),[1]; compared to other groups,significantly increased; also recorded: significantly improved the ability to discriminate a new object
same,time exploring the new object versus the familiar object,[1]; test phase after 15 minute delay,clearly spent more time exploring the new object
same,"time in the target quadrant, probe trials PT2 and PT3",[2]; 15 and 30 days after the end of the treatment,beneficial effect disappeared; also recorded: showed no effect
same,"time in the target quadrant, first probe trial",[2]; 24 hours after last day of training,focus significantly more on the target quadrant; also recorded: improved performance in the first probe trial
same,escape latencies to reach the submerged platform (learning),"[2]; training day 2 to 4, compared to control group",significantly reduced; also recorded: increased performance in the learning of spatial memory task
same,inhibition of LIF-induced phosphorylation of STAT3,"[3]; 10 nM P21, 0.25 nM LIF",~30%
same,"LIF-induced STAT3 phosphorylation, concentration dependence","[3]; 0.01 to 1000 nM P21, 0.25 nM LIF",dose-dependent manner; also recorded: inhibited slightly in a dose-dependent manner
